Converted amounts (≈) assume the structure as drawn.
Experiments:
[1] = Solubility of carbon dioxide in nicotine solutions with low propylene glycol (Example 5); assay type: physicochemical; settings: for Added CO2: ~50.0 g solution, average of two experiments
Text: Using the same methodology as that of Example 3, solutions of nicotine in glycerol, nicotine, water, and propylene glycol (if present) were made as detailed in the Table 4. In Table 4, propylene glycol is referred to as “PG”. The propylene glycol, when present, originated from the addition of a tobacco flavouring composition. The tobacco flavouring composition, referred to in Table 4 as “TF”, (made up of tobacco flavouring dissolved/dispersed in propylene glycol) included propylene glycol at 65% by weight. […] For each experiment, the solution used was within 0.2 g of 50.0 g. As with Example 3, the solutions were weighed before and after the addition of the CO2, and the change in weight before and after addition of the CO2 enabled the amount of CO2 incorporated into the solution to be derived. The amount of carbon dioxide reported as being incorporated into solution is the average result achieved across two experiments.

[2] = Solubility of carbon dioxide in nicotine solutions (Example 3, weight change); assay type: physicochemical
Protocol: Into weighed plastic 500 ml bottles containing approximately 50 g of a solution of nicotine in glycerol/propylene glycol according to Table 3 were added 4-5 g solid carbon dioxide (dry-ice), sufficient to raise the pressure to 4-5 bar. The mixtures were held under pressure for 3 days before the pressure was released, and the mixtures were then stood at ambient temperature for 48 hours and then the new weight of the solution measured. The change in weight before and after addition of the CO2 enable the amount of CO2 incorporated into the solution to be derived, as well as the molar ratio of CO2 to nicotine.

[3] = glycerol 78.3, nicotine 5, water 8.7, TF 8, PG 5.2 wt %
[4] = glycerol 81, nicotine 2, water 9, TF 8, PG 5.2 wt %
[5] = glycerol 82.65, nicotine 5, water 4.35, TF 8, PG 5.2 wt %
[6] = glycerol 85.5, nicotine 2, water 4.5, TF 8, PG 5.2 wt %
[7] = glycerol 85.5, nicotine 5, water 9.5, TF 0, PG 0 wt %
[8] = glycerol 88.2, nicotine 2, water 9.8, TF 0, PG 0 wt %
[9] = glycerol 90.25, nicotine 5, water 4.75, TF 0, PG 0 wt %
[10] = glycerol 93.1, nicotine 2, water 4.9, TF 0, PG 0 wt %

O=C=O [CO2, carbon dioxide]
Solubility of CO2 [1, 3]: 13 g/kg | Solubility of CO2 ([1]; glycerol 78.3, nicotine 5, water 8.7, TF 8, PG 5.2 wt %, estd density 1.21 kg/l): 16 mg/mL | Added CO2 [1, 3]: 0.66 g | Solubility of CO2 [1, 4]: 12 g/kg | Solubility of CO2 ([1]; glycerol 81, nicotine 2, water 9, TF 8, PG 5.2 wt %, estd density 1.21 kg/l): 14 mg/mL | Added CO2 [1, 4]: 0.58 g | Solubility of CO2 [1, 5]: 16 g/kg | Solubility of CO2 ([1]; glycerol 82.65, nicotine 5, water 4.35, TF 8, PG 5.2 wt %, estd density 1.22 kg/l): 19 mg/mL | Added CO2 [1, 5]: 0.79 g | Solubility of CO2 [1, 6]: 11 g/kg | Solubility of CO2 ([1]; glycerol 85.5, nicotine 2, water 4.5, TF 8, PG 5.2 wt %, estd density 1.23 kg/l): 13 mg/mL | Added CO2 [1, 6]: 0.54 g | Solubility of CO2 [1, 7]: 16 g/kg | Solubility of CO2 ([1]; glycerol 85.5, nicotine 5, water 9.5, TF 0, PG 0 wt %, estd density 1.22 kg/l): 20 mg/mL | Added CO2 [1, 7]: 0.82 g | Solubility of CO2 [1, 8]: 11 g/kg | Solubility of CO2 ([1]; glycerol 88.2, nicotine 2, water 9.8, TF 0, PG 0 wt %, estd density 1.23 kg/l): 14 mg/mL | Added CO2 [1, 8]: 0.56 g | Solubility of CO2 [1, 9]: 18 g/kg | Solubility of CO2 ([1]; glycerol 90.25, nicotine 5, water 4.75, TF 0, PG 0 wt %, estd density 1.24 kg/l): 23 mg/mL | Added CO2 [1, 9]: 0.91 g | Solubility of CO2 [1, 10]: 10 g/kg | Solubility of CO2 ([1]; glycerol 93.1, nicotine 2, water 4.9, TF 0, PG 0 wt %, estd density 1.25 kg/l): 13 mg/mL | Added CO2 [1, 10]: 0.51 g | Solubility CO2 ([2]; 70:30 glycerol:propylene glycol, nicotine 0 g/kg, 4-5 bar 3 days, then 48 h ambient): 3.8 g/kg | Added CO2 ([2]; 70:30 glycerol:propylene glycol, nicotine 0 g/kg, 50.00 g solution, 4-5 bar 3 days, then 48 h ambient): 0.19 g | Solubility CO2 ([2]; 70:30 glycerol:propylene glycol, nicotine 0 g/kg, estimated density 1.19 kg/L): 4.5 mg/mL (≈ 102 mM) | Molar ratio CO2/nicotine ([2]; 70:30 glycerol:propylene glycol, nicotine 4 g/kg (0.4%)): 8.77 mol/mol | Added CO2 ([2]; 70:30 glycerol:propylene glycol, nicotine 4 g/kg (0.4%), 49.96 g solution, average of two results): 0.48 g | Solubility CO2 ([2]; 70:30 glycerol:propylene glycol, nicotine 4 g/kg (0.4%), average of two results): 9.5 g/kg | Solubility CO2 ([2]; 70:30 glycerol:propylene glycol, nicotine 4 g/kg (0.4%), estimated density 1.19 kg/L): 11.3 mg/mL (≈ 257 mM) | weight increase (CO2 incorporated) ([2]; comparative: 20 g pure nicotine charged similarly with carbon dioxide): did not result in any weight increase at all

Source: patent US11690396B2, “Electronic cigarette compositions, devices, and related methods” (ZANOPRIMA LIFESCIENCES LIMITED, priority 2018, dated 2023)
